Values after ≈ are worked out from the molar mass of the structure shown. Marks after values point to notes of the source that are not given here.
How the values were obtained:
Staphylococcus aureus = experiment: In vitro antibacterial activity, standard agar dilution method (Table II); type: cell-based
[1] = system: Staphylococcus epidermidis; experiment: as above; type: cell-based; settings: strain IO-83-58
[2] = system: Streptococcus sp. (β-hemolytic); experiment: as above; type: cell-based
Klebsiella pneumoniae = experiment: as above; type: cell-based; settings: strain AD
Enterobacter cloacae = experiment: as above; type: cell-based; settings: strain VGH-84-37
Serratia marcescens = experiment: as above; type: cell-based; settings: strain K-84-18
Clostridium perfringens = type: cell-based; settings: strain ATCC 13124
[3] = system: Pasteurella haemolytica 30660; experiment: Pasteurella disk test (primary in vitro disk diffusion test); type: cell-based; settings: disks soaked in 2.5 mg/ml solution; strain 30660
Streptococcus pyogenes = experiment: Minimum inhibitory concentration by agar dilution (Table VI); type: cell-based; settings: 2 strains tested
Streptococcus faecalis = experiment: as above; type: cell-based; settings: 1 strain tested
Streptococcus uberis = experiment: as above; type: cell-based; settings: 1 strain tested
Escherichia coli = experiment: as above; type: cell-based; settings: 2 strains tested
Salmonella choleraesuis = experiment: as above; type: cell-based; settings: 2 strains tested
[4] = system: Bordetella bronchiseptica; experiment: as above; type: cell-based; settings: 4 strains tested
[5] = Growth of chickens and efficiency of feed utilization (Example 5, Table VIII); type: in vivo, Peterson X Arbor Acres chicks; settings: for Feed/Gain 0-1 Wk: control 1.21; for Feed/Gain 0-2 Wk: control 1.33; for Feed/Gain 0-3 Wk: control 1.43; for efficiency of feed utilization (statement in words) / weight gains of chicks (statement in words): over unmedicated controls
Description: In this test one day old Peterson X Arbor Acres chicks are sorted into equal weight groups of 5 males and 5 females per cage. Cages are randomized to treatment groups with six replicates per treatment. Each compound is tested at 50 and 100 ppm in the diet and evaluated against chicks receiving a non-medicated diet.
The chicks are weighed at the start of the test and at 1 week intervals thereafter to the conclusion of said test. The chicks are given free access to feed and water during the entire test period. The feed is weighed when provided to the chicks and excess feed collected and weighed when the cages are cleaned.
The poultry diet employed in the test is as follows: Vitamin-amino acid premix 0.5% Trace minerals 0.1% Sodium chloride 0.3% Dicalcium phosphate 1.2% Ground limestone 0.5% Stabilized fat 4.0% Dehydrated alfalfa, 17% protein 2.0% Corn gluten meal, 41% protein 5.0% Menhaden fish meal, 60% protein 5.0% Soybean oil meal, 44% protein 30.0% Ground yellow corn, fine to 100.0%
The vitamin-amino acid premix in the above feed composition is prepared from the following formulation. The expressions of quantity relate to units per kilogram of the finished feed compositions. Butylated hydroxy toluene 125.0 mg d1-Methionine 500.0 mg Vitamin A 3300.0 I.U. Vitamin D₃ 1100.0 I.C.U. Riboflavin 4.4 mg Vitamin E 2.2 I.U. Niacin 27.5 mg Panthothenic acid 8.8 mg Choline chloride 500.0 mg Folic acid 1.43 mg Menadione sodium bisulfate 1.1 mg Vitamin B₁₂ 11.0 mcg Ground yellow corn, fine to […]

[6] = system: Streptococcus pyogenes C203; experiment: In vivo antibacterial activity in infected mice (Table III); settings: S. pyogenes C203, 30 minutes before infection
[7] = system: Staphylococcus aureus Smith; experiment: as above; settings: S. aureus Smith, 30 minutes before infection
Treponema hyodysenteriae = experiment: T. hyodysenteriae disk test (primary in vitro disk diffusion test); settings: disks soaked in 2.5 mg/ml solution, zones of inhibited hemolysis
[8] = system: Mycoplasma gallisepticum "R"; experiment: Minimum inhibitory concentration assay for Mycoplasma gallisepticum (microdilution, Table VII); settings: microdilution; "R" strain
[9] = single subcutaneous dose 4 mg/kg
[10] = single subcutaneous dose 8 mg/kg
[11] = single subcutaneous dose 16 mg/kg
[12] = single subcutaneous dose 32 mg/kg
[13] = single subcutaneous dose 64 mg/kg
[14] = single subcutaneous dose 256 mg/kg

## C/C=C\C=C\[C@@H]1O[C@](O)([C@H](CO[C@H]2C[C@@H](OC)[C@@H](O[C@@H]3C[C@@H](OC)[C@@H](O[C@H]4C[C@H](OC)[C@H](O)[C@H](C)O4)[C@H](C)O3)[C@@H](C)O2)C(=O)NC/C=C/C=C(\C)[C@@H](OC)[C@H](C)[C@H]2C[C@H](O)[C@H](/C=C/C=C/C=C/C(=O)O)O2)[C@H](OC(=O)Cc2ccccc2)[C@H](O)C1(C)C [LL-E19020 alpha]
Staphylococcus aureus; strain ATCC 25923
  Minimal Inhibitory Concentration: > 256 µg/mL
Staphylococcus aureus; strain CMC-83-127
  Minimal Inhibitory Concentration: > 256 µg/mL
Staphylococcus aureus; strain CMC-83-131
  Minimal Inhibitory Concentration: > 256 µg/mL
Staphylococcus aureus; strain CMC-83-132
  Minimal Inhibitory Concentration: > 256 µg/mL
Staphylococcus aureus; strain SSC-82-57
  Minimal Inhibitory Concentration: > 256 µg/mL
Staphylococcus aureus; strain Smith
  Minimal Inhibitory Concentration: 128 µg/mL
Staphylococcus aureus; strain VGH-84-45
  Minimal Inhibitory Concentration: > 256 µg/mL
[1]
  Minimal Inhibitory Concentration: > 256 µg/mL
[2]; strain C203
  Minimal Inhibitory Concentration: 0.5 µg/mL
[2]; strain VGH-84-60
  Minimal Inhibitory Concentration: 0.25 µg/mL
[2]; strain VGH-84-61
  Minimal Inhibitory Concentration: 1 µg/mL
[2]; strain VGH-84-62
  Minimal Inhibitory Concentration: 1 µg/mL
[2]; strain VGH-84-63
  Minimal Inhibitory Concentration: 0.12 µg/mL
[2]; strain VGH-84-64
  Minimal Inhibitory Concentration: 0.12 µg/mL
Klebsiella pneumoniae
  Minimal Inhibitory Concentration: >256 µg/mL
Enterobacter cloacae
  Minimal Inhibitory Concentration: >256 µg/mL
Serratia marcescens
  Minimal Inhibitory Concentration: >256 µg/mL
Clostridium perfringens
  Minimal Inhibitory Concentration: 16 µg/mL
[3]
  ZONE SIZE: 13 mm
Streptococcus pyogenes
  MIC: 2 µg/mL (≈ 1.63 µM)
Streptococcus faecalis
  MIC: 8 µg/mL (≈ 6.52 µM)
Streptococcus uberis
  MIC: 8 µg/mL (≈ 6.52 µM)
Escherichia coli
  MIC: ≧ 256 µg/ml
Salmonella choleraesuis
  MIC: > 256 µg/mL
[4]
  MIC: > 256 µg/mL
[5]; 50 ppm in the diet
  Weight Gains % Improvement over Controls 0-1 Wk: 12.5** %
  Weight Gains % Improvement over Controls 0-2 Wk: 4.1* %
  Weight Gains % Improvement over Controls 0-3 Wk: 4.2* %
  Feed/Gain 0-1 Wk: 1.11*
  Feed/Gain 0-2 Wk: 1.30
  Feed/Gain 0-3 Wk: 1.38
[5]; 100 ppm in the diet
  Weight Gains % Improvement over Controls 0-1 Wk: 8.9* %
  Weight Gains % Improvement over Controls 0-2 Wk: 6.3** %
  Weight Gains % Improvement over Controls 0-3 Wk: 6.1** %
  Feed/Gain 0-1 Wk: 1.12*
  Feed/Gain 0-2 Wk: 1.27
  Feed/Gain 0-3 Wk: 1.39
[5]
  efficiency of feed utilization (statement in words): increased the efficiency of feed utilization
  weight gains of chicks (statement in words): improved the weight gains of chicks
[6]; [9]
  Survival Ratios 7 Days After Infection: 2/5
[6]; [10]
  Survival Ratios 7 Days After Infection: 4/5
[6]; [11]
  Survival Ratios 7 Days After Infection: 5/5
[6]; [12]
  Survival Ratios 7 Days After Infection: 5/5
[6]; [13]
  Survival Ratios 7 Days After Infection: 5/5
[7]; [9]
  Survival Ratios 7 Days After Infection: 2/5
[7]; [11]
  Survival Ratios 7 Days After Infection: 3/5
[7]; [13]
  Survival Ratios 7 Days After Infection: 3/5
[7]; [14]
  Survival Ratios 7 Days After Infection: 3/5
Treponema hyodysenteriae; strain B78 (ATCC 27164)
  ZONE SIZE: 0 mm
Treponema hyodysenteriae; strain B204 (ATCC 31212)
  ZONE SIZE: 15 mm
[8]
  MIC: 0.125 µg/mL (≈ 0.102 µM)

## C/C=C/C=C/[C@@H]1O[C@](O)([C@H](CO[C@H]2C[C@H](OC)[C@H](O[C@@H]3C[C@H](OC)[C@@H](O[C@H]4C[C@H](OC)[C@H](O)[C@H](C)O4)[C@H](C)O3)[C@H](C)O2)C(=O)NC/C=C/C=C(\C)[C@H](OC)[C@@H](C)[C@@H]2C[C@H](O)[C@@H](/C=C/C=C/C=C\C(=O)O)O2)[C@@H](O)[C@H](OC(=O)Cc2ccccc2)C1(C)C [LL-E19020 beta]
Staphylococcus aureus; strain ATCC 25923
  Minimal Inhibitory Concentration: > 256 µg/mL
Staphylococcus aureus; strain CMC-83-127
  Minimal Inhibitory Concentration: > 128 µg/mL
Staphylococcus aureus; strain CMC-83-131
  Minimal Inhibitory Concentration: > 128 µg/mL
Staphylococcus aureus; strain CMC-83-132
  Minimal Inhibitory Concentration: > 128 µg/mL
Staphylococcus aureus; strain SSC-82-57
  Minimal Inhibitory Concentration: > 128 µg/mL
Staphylococcus aureus; strain Smith
  Minimal Inhibitory Concentration: > 128 µg/mL
Staphylococcus aureus; strain VGH-84-45
  Minimal Inhibitory Concentration: > 128 µg/mL
[1]
  Minimal Inhibitory Concentration: > 128 µg/mL
[2]; strain C203
  Minimal Inhibitory Concentration: 0.5 µg/mL
[2]; strain VGH-84-60
  Minimal Inhibitory Concentration: 0.25 µg/mL
[2]; strain VGH-84-61
  Minimal Inhibitory Concentration: 0.5 µg/mL
[2]; strain VGH-84-62
  Minimal Inhibitory Concentration: 0.5 µg/mL
[2]; strain VGH-84-63
  Minimal Inhibitory Concentration: 0.12 µg/mL
[2]; strain VGH-84-64
  Minimal Inhibitory Concentration: 0.12 µg/mL
Klebsiella pneumoniae
  Minimal Inhibitory Concentration: >128 µg/mL
Enterobacter cloacae
  Minimal Inhibitory Concentration: >128 µg/mL
Serratia marcescens
  Minimal Inhibitory Concentration: >128 µg/mL
Clostridium perfringens
  Minimal Inhibitory Concentration: 4 µg/mL
[3]
  ZONE SIZE: 13 mm
Streptococcus pyogenes
  MIC: 2 to 4 µg/mL
Streptococcus faecalis
  MIC: 8 µg/mL (≈ 6.52 µM)
Streptococcus uberis
  MIC: 4 µg/mL (≈ 3.26 µM)
Escherichia coli
  MIC: ≧ 256 µg/ml
Salmonella choleraesuis
  MIC: > 256 µg/mL
[4]
  MIC: > 256 µg/mL
[5]; 50 ppm in the diet
  Weight Gains % Improvement over Controls 0-1 Wk: 12.7** %
  Weight Gains % Improvement over Controls 0-2 Wk: 4.5* %
  Weight Gains % Improvement over Controls 0-3 Wk: 5.3* %
  Feed/Gain 0-1 Wk: 1.11*
  Feed/Gain 0-2 Wk: 1.31
  Feed/Gain 0-3 Wk: 1.40
[5]; 100 ppm in the diet
  Weight Gains % Improvement over Controls 0-1 Wk: 10.7* %
  Weight Gains % Improvement over Controls 0-2 Wk: 5.1* %
  Weight Gains % Improvement over Controls 0-3 Wk: 5.9** %
  Feed/Gain 0-1 Wk: 1.13*
  Feed/Gain 0-2 Wk: 1.29
  Feed/Gain 0-3 Wk: 1.38
[5]
  efficiency of feed utilization (statement in words): increased the efficiency of feed utilization
  weight gains of chicks (statement in words): improved the weight gains of chicks
[6]; [9]
  Survival Ratios 7 Days After Infection: 2/5
[6]; [10]
  Survival Ratios 7 Days After Infection: 3/5
[6]; [11]
  Survival Ratios 7 Days After Infection: 5/5
[6]; [12]
  Survival Ratios 7 Days After Infection: 5/5
[6]; [13]
  Survival Ratios 7 Days After Infection: 5/5
[7]; [9]
  Survival Ratios 7 Days After Infection: 1/5
[7]; [11]
  Survival Ratios 7 Days After Infection: 1/5
[7]; [13]
  Survival Ratios 7 Days After Infection: 1/5
[7]; [14]
  Survival Ratios 7 Days After Infection: 1/5
Treponema hyodysenteriae; strain B204 (ATCC 31212)
  ZONE SIZE: 11 mm
[8]
  MIC: 0.125 µg/mL (≈ 0.102 µM)
